Source: patent US4020111A, “Propynyloxy alkyl arene insecticides” (priority 1975, dated 1977)

Tests used:
[1] = tested on: polyvalent resistant (CH strain) houseflies; assay: whole plant or invertebrate; type: in vivo, housefly (CH strain); settings: Musca domestica, topical, 24 h, read-out: mortality, insecticide used without synergist
Method: The effect of O-(2-propynyl) oximes with Dimetilan and with GS 13798 was obtained from tests on polyvalent resistant (CH strain) houseflies that had been chilled and to the dorsal region of which was applied an acetone solution of synergist and insecticide at a ratio of two to one. Duplicate tests were performed using 10 four to five-day old female houseflies per test. After dosage, the flies were put in a plastic petri dish with cotton soaked in a sugar-water solution. These doses of insecticide used without synergist caused 10-40% mortality.
(§1) In Table IX, and in the tables following it, the doses of topically applied insecticides and of synergists unless otherwise noted are expressed as micrograms per fly (μg/fly).
The effect of compounds II-C, II-D and II-E with Dimetilan and GS 13798 was determined, following the procedure of Example 5, from tests on polyvalent resistant (CH strain) houseflies. These doses of insecticide used without synergist caused 10-40% mortality.
(§2) The synergistic effect with GS 13005 of compounds I-A, I-B, I-D, I-E, I-F, I-G and I-I was determined from topical application tests to IN/WHO strain, Rutgers A strain and polyvalent CH strain houseflies using the procedures of Example 5. The percent kills of the IN/WHO strain flies after 24 hours are shown in Table XXVIII; of the Rutgers A strain, in Table XXIX; and of the polyvalent CH strain, in Table XXX. The doses of insecticide alone to the CH strain files caused 10-40% mortality.
(§3) The synergistic effect with Diazinon and GS 13005 of various of the benzyl 2-propynyl ethers identified in Tables II and IIa was determined by topical application tests on IN/WHO strain, and Rutgers A strain and polyvalent, resistant, CH strain houseflies using the procedures of Example 5. The percent kills after 24 hours of IN/WHO strain flies are shown in Table XXXI; of Rutgers A strain flies, in Table XXXII; and of CH strain flies, in Table XXXIII. The doses of insecticide alone to the CH strain flies caused 10-40% mortality.
The synergistic effect with pyrethrum of various synergist compounds was determined by topical application tests on polyvalent, resistant CH strain houseflies following the procedure of Example 5. Application of the insecticide alone caused 10-40% mortality.

[2] = tested on: IN/WHO strain house flies; assay: topical application test, percent kill after 24 hours, IN/WHO strain; type: in vivo, house fly (susceptible IN/WHO strain)
Method: as §1
The synergistic effect of O-(2-propynyl) oximes with mobam was determined from topical application tests on susceptible, female, IN/WHO strain house flies and from tests on resistant, female, Rutgers A strain house flies. The synergist and insecticide were dissolved in ACS Grade acetone in such quantities that a 1.0μ liter volume applied to the thorax of 3-to-5 day old CO2 -anesthetized female adult house flies contained the desired dosage. After being treated, the flies were confined, 10 to a plaster petri dish, with 3-5 dishes/treatment, and held for 24-hr. observation of mortality. Reconstituted skim milk on cotton dental wicks was provided during the holding period. The percent kills after 24 hours are shown in Table X for the IN/WHO strain and Table XI for the Rutgers A strain.
The synergistic effect of benzyl 2-propynyl ethers with mobam was determined from topical application tests on IN/WHO and Rutgers A strain houseflies, following the procedure of Example 5. The percent kills after 24 hours are shown in Table XIV for the IN/WHO strain and in Table XV for the Rutgers A strain.
The effects of varying the insecticide dose and the synergist-insecticide ratio are further illustrated, with synergist compounds II-D, II-E, II-F and Mobam insecticide, in Tables XVI, XVII and XVIII.
The synergistic effect on IN/WHO flies of synergist compound II-K with Dimetilan, pyrolan, Baygon and HRS 1422 is illustrated by the 24 hour percent mortality data in Tables XIX, XX and XXI.
The effect on IN/WHO flies of synergist compound IV-C, identified in Table IV, with mobam was determined by the topical application procedure of Example 5.
The synergistic effect with Diazinon of compounds I-B, I-D, I-F, I-G, I-H and I-I, identified in Tables I and Ia, was determined from topical application tests on IN/WHO strain houseflies and on Rutgers A strain houseflies by the procedure of Example 5. The percent kills after 24 hours are shown in Table XXV for the IN/WHO strain and Table XXVI for the Rutgers A strain.
as §2, §3
The synergist effect on IN/WHO flies of synergist compound II-K with Gardona and Bidrin is illustrated by the 24 hour percent mortality data in Tables XXXIV and XXXV.
The synergistic effect on IN/WHO strain flies and Rutgers A strain flies of compound IV-C with GS 13005 and with Diazinon was determined by the topical application procedure of Example 5. The percent kills of IN/WHO strain flies after 24 hours are shown in Tables XXXVI and XXXVII; the percent kills of Rutgers A strain flies are shown in Tables XXXVIII and XXXIX.

mice [3] = assay: acute toxicity of Dimetilan alone and of synergist alone (intraperitoneal); type: in vivo, Swiss albino white male mice; settings: for Lethality (number of mice dead): 48 hours, of eight mice
Method: To determine the acute toxicity of dimetilan alone, eight dosage levels of Dimetilan, ranging from 4 to 32 mg per kg wer applied to eight, Swiss, albino, white, male mice per dosage level. The mice weighed approximately 23 to 27 grams and were five to size weeks old. The Dimetilan was administered intraperitoneally in 0.1 ml of corn oil one hour after the administration of the same dose of corn oil alone.
To determine the acute toxicity of the synergist alone, various synergists were administered intraperitoneally at a dose of 1000 mg/kg to each of a group of eight mice. The number of animals dead at the end of 72 hours is reported in the left hand column of Table XXXXVI.

mice [4] = assay: synergism of acute toxicity of Dimetilan, GS 13005, Secobarbital and Methadone (intraperitoneal); type: in vivo, Swiss albino white male mice; settings: 48 hours
Method: The synergism of the acute toxicity of Dimetilan by various synergists was determined by tests on Swiss albino, white male mice aged 5 to 6 weeks and weighing 23 to 27 grams. The synergists and insecticides were dissolved in corn oil and the drugs were dissolved in distilled water. All compounds were administered intraperitoneally by injection in the lower quadrent of the abdomen. The synergist was administered in 0.1 ml of corn oil 1 hour prior to administration of the insecticide. Eight mice were treated, per dosage, with each synergist. The mice were watched for a minimum of 6 hours while held in a glass jar with bedding individually after intraperitoneal injection of the test solutions. Lethality was noted, the animals were weighed and transferred in cages, and food and water were supplied. Control mice were given 0.1 ml of corn oil at the time of administration of the synergist to the test mice and 0.1 ml corn oil plus Dimetilan at the time of administration of the insecticide to the test mice.
By the same procedure, the synergism of acute toxicity of GS 13005, Secobarbital and 6-dimethylamino-4,4-diphenyl-3-heptanone [Methadone] was determined.

[5] = tested on: Wilson strain house flies; type: in vivo, house fly (susceptible Wilson strain)
Method: The required solutions of the insecticide and of the synergist compound were prepared in acetone at a concentration of one milligram per milliliter. One-pint wide mouth glass jars were coated wiith the appropriate insecticide-synergist combination by rolling the jars containing aliquots of the appropriate solutions diluted to three milliliters with acetone to deposit, by evaporation, a film of the test materials. The flies were transferred under carbon dioxide anesthesia and held in the jar at room temperature. Perforated aluminum foil was used to cover the jars and to hold cotton saturated with 10% sugar solution. Counts were made at intervals, but the recorded mortality was based on 24-hour kill, rather than knockdown. All prostrate nonmoving flies were considered dead. A determination was then made of the contact synergistic ratio [SR], which is the ratio of the LC50 of insecticide alone to the LC50 of the insecticide when applied together with the synergist. The LC50 of the insecticide was estimated from a log-probit plot of percent kill versus dosage. […] The LC50 of the combination of insecticide and synergist was determined at a synergist to insecticide parts by weight ratio of five to one.

[6] = tested on: German male cockroaches (Blatella Germanicus); assay: topical application to thorax, 24 hour mortality of German male cockroaches; type: in vivo, German cockroach (Blatella Germanicus)
Method: The synergistic effect with mobam of synergist compounds I-B, II-H, II-K and IV-C is further illustrated by the 24 hour mortality data of German male cockroaches (Blatella Germanicus) shown in Table XXXX. The synergists and insecticide were diluted in acetone and applied in small droplets to the thorax of the insect. These doses of synergist alone gave zero percent insect mortality.
The synergistic effect with GS 13005 of compounds I-B, II-H, II-K, II-P, II-Q, II-R and IV-C is illustrated by the 24 hour mortality of German male cockroaches shown in Table XXXXI. These doses of synergist alone caused zero percent insect mortality.

mice [7] = assay: extension of Secobarbital sleeping time by synergists; type: in vivo, Swiss albino white male mice; settings: Secobarbital 37 mg/K; for Relative Sleeping Time: treated/control
Method: (§4) The selectivity of the synergist compounds of this invention is illustrated by the results of sleeping-time extension tests and of acute toxicity tests on Swiss albino white male mice.
(§5) The effect of various synergist compounds on sleeping time of sodium secobarbital [Secobarbital] and of 3,3-diethyl-5-methyl-2,4-dioxypiperidine [Noludar] was determined by administering the drug, with and without synergist, to approximately 38-day old male mice weighing from 25 to 30 grams. Synergists were administered in each of two doses, 74.0 mg/kg (dilution being 2.0 mg/0.1 ml corn oil), and 110.0 mg/kg (dilution 3.0 mg/0.1 ml oil). Secobarbital was administered at a dose of 37.0 mg/kg (dilution 1.0 mg/0.1 ml water). Noludar was administered at a dose of 110.0 mg/kg (dilution 3.0 mg/0.1 ml water). The synergist was administered one hour prior to administration of the Secobarbital or Noludar. Secobarbital and Noludar sleeping times were obtained for both the control (drug only) and the treated (synergist plus drug) mice by noting the time lapse between the administration of the drug and the recovery of the righting reflex, i.e. when the animal regains conciousness and can walk up an inclined wooden tray with coordination. The relative sleeping time (R.S.) was noted. The R.S. is the extended sleeping time in the treated mice (synergist plus drug) divided by the sleeping time in the control mice (drug only). The mean sleeping time for the treated mice and the R.S. are shown on Table XXXXIV for various synergist compounds.

mice [8] = assay: extension of Noludar sleeping time by synergists; type: in vivo, Swiss albino white male mice; settings: Noludar 110 mg/K, synergist 110 mg/K; for Relative Sleeping Time: treated/control
Method: as §4, §5

[9] = synergist alone at doses of Table XXXX
[10] = synergist alone at doses of Table XXXXI
[11] = Dimetilan 8 mg/kg + synergist 80 mg/kg ip, of eight mice
[12] = Dimetilan 8 mg/kg + synergist 240 mg/kg ip, of eight mice

## Cc1cc(OC(=O)N(C)C)nn1C(=O)N(C)C [Dimetilan, 1-(dimethylcarbamoyl)-5-methyl-3-pyrazolyl dimethylcarbamate]
[1]
  mortality at 2 µg/fly: 10 to 40%
[2]; Dimetilan alone 0.031 μg/fly
  24 hour percent mortality: 0%
[2]; Dimetilan alone 0.063 μg/fly
  24 hour percent mortality: 17%
[2]; Dimetilan alone 0.13 μg/fly
  24 hour percent mortality: 43%
[2]; Dimetilan alone 0.25 μg/fly
  24 hour percent mortality: 100%
Mice [3]; Dimetilan alone 4.0 mg/kg ip
  Lethality (number of mice dead): 0
Mice [3]; Dimetilan alone 8.0 mg/kg ip
  Lethality (number of mice dead): 0
Mice [3]; Dimetilan alone 12.0 mg/kg ip
  Lethality (number of mice dead): 1
Mice [3]; Dimetilan alone 16.0 mg/kg ip
  Lethality (number of mice dead): 3
Mice [3]; Dimetilan alone 20.0 mg/kg ip
  Lethality (number of mice dead): 4
Mice [3]; Dimetilan alone 24.0 mg/kg ip
  Lethality (number of mice dead): 7
Mice [3]; Dimetilan alone 28.0 mg/kg ip
  Lethality (number of mice dead): 8
Mice [3]; Dimetilan alone 32.0 mg/kg ip
  Lethality (number of mice dead): 8
Mice [3]; mice, ip
  dose level just below that at which Dimetilan alone showed lethality: 8 mg/kg
Mice [4]; control: Dimetilan 8 mg/kg with 0.1 ml oil, 80 mg/kg
  number of mice dead: 0
Mice [4]; control: Dimetilan 8 mg/kg with 0.1 ml oil, 240 mg/kg
  number of mice dead: 0

## C#CCON=Cc1cccc([N+](=O)[O-])c1 [I-B]
[5]; in vivo
  Contact Synergistic Ratio, Carbaryl (LC50 insecticide alone / LC50 with synergist): 270
[5]; pyrolan, synergist to insecticide 5:1 by weight, 24 h
  Contact Synergistic Ratio, Pyrolan (LC50 insecticide alone / LC50 with synergist): 35
[6]; [9]
  insect mortality, synergist alone: zero
[6]; [10]
  insect mortality, synergist alone: zero
Mice [7]; synergist 74 mg/K
  Mean Sleeping Time: 54 min
  Relative Sleeping Time: 1.5
Mice [7]; synergist 110 mg/K
  Mean Sleeping Time: 106 min
  Relative Sleeping Time: 1.7
Mice [8]
  Mean Sleeping Time: 70 min
  Relative Sleeping Time: 2.4
Mice [4]; [11]
  number of mice dead: 1
Mice [4]; [12]
  number of mice dead: 6

## C#CCOCc1cccc2ccccc12 [II-R, α-naphthylmethyl 2-propynyl ether]
[6]; [10]
  insect mortality, synergist alone: zero
Mice [7]; synergist 74 mg/K
  Mean Sleeping Time: 35 min
  Relative Sleeping Time: 1.2
Mice [7]; synergist 110 mg/K
  Mean Sleeping Time: 96 min
  Relative Sleeping Time: 1.6
Mice [8]
  Mean Sleeping Time: 49 min
  Relative Sleeping Time: 1.7
Mice [4]; [11]
  number of mice dead: 0
Mice [4]; [12]
  number of mice dead: 2

## C#CCOC(c1ccc(Cl)cc1)C(C)[N+](=O)[O-] (stereo not drawn) [IV-C]
[6]; [9]
  insect mortality, synergist alone: zero
[6]; [10]
  insect mortality, synergist alone: zero
Mice [7]; synergist 74 mg/K
  Mean Sleeping Time: 112 min
  Relative Sleeping Time: 4.7
Mice [8]
  Mean Sleeping Time: 74 min
  Relative Sleeping Time: 2.5
Mice [4]; [11]
  number of mice dead: 5
Mice [4]; [12]
  number of mice dead: 7
